Patent US11045438B2, “Cysteine composition and injection” (Exela Sterile Medicines LLC, priority 2019, dated 2021)
≈ marks a conversion by molar mass, not a printed value. Like-named read-outs stand apart in the source and are kept apart here.

What was measured:
physchem = conditions: 22 °C
Source text: Cystine, a sulfur-sulfur dimer of cysteine, can form in the presence of oxygen (air) in cysteine solutions. Cystine, especially the free base, is several orders of magnitude less soluble in aqueous solutions than cysteine, and the solubility of cystine decreases as the pH increases.

[1] = cited from earlier work
[2] = aqueous with cosolvent or surfactant or cyclodextrin

| solubility (physchem; water) [µg/mL] | solubility (physchem; [2]) [µg/mL] | SMILES | solubility ([1]; pH 1.0) | solubility ([1]; pH 1.4) |
| --- | --- | --- | --- | --- |
| 18700 (≈ 155000 µM) |  | N[C@@H](CS)C(=O)O [Cysteine free base, Cysteine] |  |  |
| 1040 | 9930 | Cl.Cl.N[C@@H](CSSC[C@H](N)C(=O)O)C(=O)O [Cystine Dihydrochloride] |  |  |
| 140 (≈ 583 µM) | 590 (≈ 2460 µM) | N[C@@H](CSSC[C@H](N)C(=O)O)C(=O)O [Cystine free Base, Cystine] | approximately 4 mg/mL | approximately 1 mg/ml |
